The test system of data set [1] is mice. The data set can be described thus: Spontaneous motility. The data set is classed as in vivo. Conditions: Mus musculus, 20 min, read-out: Spontaneous motility, variation; for change in vivo at 25 mg/kg: dose 25 mg.kg^-1. As to the method:
(§1) The acute toxicity and central nervous system activity of the compounds of the invention were investigated in mice using various test-models. These tests were carried out in accordance with the procedures summarised below.
Groups of 4 mice prepared as above are placed in circular corridors intersected by infrared beams, making it possible to count the number of movements made by the animals. The number of movements is summed up after 20 minutes and the results are expressed as the percentage variation relative to the group of control animals, which have only received the vehicle (gum arabic/water).

Data set [2] is described as follows: Acute toxicity (mortality after 24 hours). To be noted: mouse, in vivo, po. As for the experimental part:
as §1
Male mice of the OF1, IFFA, CREDO strain and having an average weight of 22±1 g, receive, by oesophagial intubation, a solution of arabic gum and distilled water (1/2-1/2) containing the compound to be studied, at a rate of 0.25 ml per 20 g of body weight. The symptomatology of the intoxication was observed and the mortality was recorded after 24 hours.

For data set [3], the system named is mice. The data set can be described thus: Hypnotic activity (sleep induction time, sleep time). The data set is classed as in vivo. As to the method:
as §1
Mice receive, by intraperitoneal administration, 0.25 ml per 20 g of body weight of a solution consisting of arabic gum and of 0.154M NaCl solution (1/2-1/2) containing 12.5 mg.kg.^-1 of the compound to be studied, and the "sleep induction time"--the time taken for the loss of righting reflex to appear after the animal has been placed in the dorsal decubitus position--and the "sleep time"--the duration of the above loss of reflex--are then noted. For this test, pentobarbital is given as a reference, administered at a dose of 50 mg.kg.^-1.

The next data set has as its system dogs. The data set can be described thus: Pentobarbital-induced heart failure in anaesthetized dogs, intraduodenal administration. The data set is classed as in vivo. To be noted: 1 mg/kg I.D.; for Aortic capacity / Bradycardia and hypotension induced by pentobarbital / Inotropic effect: after 20 minutes. An excerpt:
In addition to the activity pattern described above the compounds of formula I, in which R1 and R2 both represent hydrogen have a particularly beneficial effect in the treatment of heart failure. The latter activity has been tested using a technique derived from Deitchman and Snyder, Arch.Int. Pharmacodyn. 250, 65 (1981).
After having been anaesthesized dogs under articicial respiration are connected with pieces of apparatus for continuous monitoring the left intraventicular pressure, the dP/dt max, the amplitude of the left ventricular contraction, the aortic capacity, the heart frequency and the arteric pressure.
Heart failure is induced by intravenous administration of pentobarbital at a dose of 20 mg per kg body weight per minute until a decrease of 50% of dP/dt max is obtained after which this level is maintained by pentobarbital administration at a dose of 0.4 mg/kg/min. Ten minutes after the beginning of this heart failure effect the products to be tested are administered. The results are compared with those obtained using Dopamine and Dobutamine as reference compounds.
Then the test was repeated by administering the products intraduodenally (I.D.). Dopamine and Dobutamine were administered at a dose of 10 mg/kg I.D. and the compounds of the invention at a dose of 1 mg/kg.

[4] abbreviates: mice, oesophagial intubation, mortality after 24 hours, read-out: Estimated LD 50.
Setting [5] is: dose 50 mg.kg^-1, relative to control animals, 20 minutes.
Setting [6] is: pentobarbital reference, 50 mg.kg^-1.
Setting [7] is: relative to control animals, 20 minutes.

Structures can show the parent of a compound that is named as a salt. Where two headings read alike, the source gives them in different places.

For the molecule `COc1ccccc1N1CCN(CCc2ccc3[nH]c(=O)oc3c2)CC1` [Compound 10, 6-(2-[4-(2-methoxyphenyl)-piperazin-1-yl]-ethyl)-benzoxazolinone], in the data set on mice [1], the change in vivo at 6.25 mg/kg is -99.3%. Moreover, in data set [2] (setting [4]), the LD50 at 24 h was 1000 mg/kg. Further, in the data set with mice [3] (12.5 mg.kg^-1, intraperitoneal), the “Hypnotic activity, sleep induction time” value was determined as 18.2 ± 4.3 min and the “Hypnotic activity, sleep time” value was found to be 86 ± 15 min.

`Cn1c(=O)oc2cc(CCN3CCN(c4cccc(C(F)(F)F)c4)CC3)ccc21` [Compound 3]: the change in vivo at 50 mg/kg in the data set with mice [1] (setting [5]) was -97.5%. The LD50 at 24 h in data set [2] stood at 1000 mg/kg.

In the case of `CCCC(C)C1(CC)C(=O)NC(=O)NC1=O` (stereo not drawn) [pentobarbital, reference compound], in the data set on mice [3] (setting [6]), the “Hypnotic activity, sleep induction time (reference)” value came out at 9.5 ± 2.2 min and the “Hypnotic activity, sleep time (reference)” value stood at 48 ± 7 min.

For `Cn1c(=O)oc2cc(CCN)ccc21` [Compound 2, 3-Methyl-6-(2-aminoethyl)-benzoxazolinone(hydrochloride)], in the data set on dogs, the “Duration of the effects” value was “at least 60 minutes”; the Aortic capacity result was “increase of the aortic capacity”; the “Bradycardia and hypotension induced by pentobarbital” value is “recovery of the bradycardia and the hypotension induced by pentobarbital”; the Inotropic effect entry is recorded as “strong positive inotropic effect”.

Consider `NCCc1ccc2[nH]c(=O)oc2c1` [Compound 15], for which the change in vivo at 50 mg/kg with mice [1] was -23.2%. Further, in the data set with dogs, the Aortic capacity result is on record as “increase of the aortic capacity”; the “Bradycardia and hypotension induced by pentobarbital” value is “recovery of the bradycardia and the hypotension induced by pentobarbital”; the Inotropic effect entry is listed as “strong positive inotropic effect”. Further, the LD50 at 24 h in data set [2] (setting [4]) is 1200 mg/kg.

In the case of `O=c1[nH]c2ccc(CCN3CCN(c4ncccn4)CC3)cc2o1` [Compound 17], the change in vivo at 25 mg/kg with mice [1] (setting [7]) is -62.8%. Besides, the LD50 at 24 h in data set [2] turned out to be 480 mg/kg.

For the molecule `Cn1c(=O)oc2cc(CCN3CCOCC3)ccc21` [Compound 4], in the data set with mice [1] (dose 12.5 mg.kg^-1, relative to control animals, 20 minutes), the change in vivo at 12.5 mg/kg is -11.9%. In addition, the LD50 at 24 h in data set [2] (setting [4]) is 1200 mg/kg.

For `COc1ccccc1N1CCN(CCc2ccc3c(c2)oc(=O)n3C)CC1` [Compound 9, 3-Methyl-6-(2-[4-(2-methoxyphenyl)-piperazin-1-yl]-ethyl)-benzoxazolinone], the change in vivo at 6.25 mg/kg in the data set on mice [1] was -93.2%. Besides, the LD50 at 24 h in data set [2] (setting [4]) was 600 mg/kg. Besides, in the data set with mice [3] (12.5 mg.kg^-1, intraperitoneal), the “Hypnotic activity, sleep induction time” value is 18 ± 7.5 min and the “Hypnotic activity, sleep time” value worked out at 46.2 ± 15 min.

On to `Cn1c(=O)oc2cc(CCN3CCN(c4ccc(F)cc4)CC3)ccc21` [Compound 18, 3-Methyl-6-(-[4-(4-fluorophenyl)-piperazin-1-yl]-ethyl)-benzoxazolinone], for which, in the data set on mice [1], the change in vivo at 6.25 mg/kg was -98.8%. Further, the LD50 at 24 h in data set [2] (setting [4]) is 1000 mg/kg. In the data set with mice [3] (12.5 mg.kg^-1, intraperitoneal), the “Hypnotic activity, sleep induction time” value was found to be 26.9 ± 6 min and the “Hypnotic activity, sleep time” value amounted to 132 ± 25 min.

Turning to `Cn1c(=O)oc2cc(CCN3CCN(c4ncccn4)CC3)ccc21` [Compound 7], the change in vivo at 50 mg/kg with mice [1] (setting [5]) was -69.9%. The molecule also returned an LD50 at 24 h in data set [2] of 1200 mg/kg.

With `Cn1c(=O)oc2cc(CCNC3CC3)ccc21` [Compound 16], in the data set with mice [1], the change in vivo at 50 mg/kg is -34.4%. For the same molecule, the LD50 at 24 h in data set [2] (setting [4]) was 600 mg/kg.

As to `CNCCc1ccc2[nH]c(=O)oc2c1` [Compound 12], the change in vivo at 50 mg/kg in the data set with mice [1] is -28%. For the same molecule, the LD50 at 24 h in data set [2] (setting [4]) was 1200 mg/kg.

On to `O=c1[nH]c2ccc(CCN3CCN(c4ccc(F)cc4)CC3)cc2o1` [Compound 19], for which the change in vivo at 6.25 mg/kg in the data set with mice [1] was -97%. Further, the LD50 at 24 h in data set [2] (setting [4]) was 1000 mg/kg. In the data set with mice [3] (12.5 mg.kg^-1, intraperitoneal), the “Hypnotic activity (in words)” value is “strong hypnotic activity”; the “Hypnotic activity, sleep induction time” value is 15.1 ± 2 min; the “Hypnotic activity, sleep time” value worked out at 78 ± 16 min.

On to `O=c1[nH]c2ccc(CCN3CCN(c4cccc(C(F)(F)F)c4)CC3)cc2o1` [Compound 8], for which, in the data set with mice [1] (setting [7]), the change in vivo at 25 mg/kg is -93.5%. Further, in data set [2], the LD50 at 24 h turned out to be 1000 mg/kg.

(Values after US4558060A, “Benzoxazolinones” (Riom Laboratories - Cerm S.A., priority 1982, dated 1985).)
